Laboratory results taken from patent US12655116B2, “Substituted isophthalic acid diamides” (Bayer Aktiengesellschaft, priority 2020, dated 2026).

Experiments:
[1] = system: ABUTH; test: Pre-emergence herbicidal action against ABUTH; type: in vivo, Abutilon theophrasti; conditions: Abutilon theophrasti, 504 h; for pest or weed control at 80 g/ha: scored visually after 3 weeks vs untreated controls (100% = plants have died, 0% = like control plants); for pest or weed control at 20 g/ha: dosage 20 g/ha, scored visually after 3 weeks vs untreated controls, 100% = plants have died, 0% = like control plants, read-out: Pre-emergence action against ABUTH (herbicidal activity in percent)
Outline: (§1)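 Sandy loam pots, seeds covered with soil, then surface-treated with WP or EC formulations at 600–800 l/ha water plus 0.2% wetting agent. Greenhouse, 3 weeks. Percent damage vs untreated controls.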

[2] = system: ALOMY; test: Pre-emergence herbicidal action against ALOMY; type: in vivo, Alopecurus myosuroides; conditions: Alopecurus myosuroides, 504 h, pre-emergence; for pest or weed control at 80 g/ha: scored visually after 3 weeks vs untreated controls (100% = plants have died, 0% = like control plants); for pest or weed control at 20 g/ha: scored visually after 3 weeks, 100% = plants have died, 0% = like control plants
Outline: as §1

[3] = system: AMARE; test: Pre-emergence herbicidal action against AMARE; type: in vivo, Amaranthus retroflexus; conditions: Amaranthus retroflexus, 504 h, scored visually after 3 weeks vs untreated controls, 100% = plants have died, 0% = like control plants
Outline: as §1

[4] = system: AVEFA; test: Pre-emergence herbicidal action against AVEFA; type: in vivo, Avena fatua; conditions: Avena fatua, 504 h; 80 g/ha, pre-emergence
Outline: as §1

[5] = system: ECHCG; test: Pre-emergence herbicidal action against ECHCG; type: in vivo, Echinochloa crus-galli; conditions: Echinochloa crus-galli, 504 h
Outline: as §1

[6] = system: HORMU; test: Pre-emergence herbicidal action against HORMU; type: in vivo, Hordeum murinum; conditions: Hordeum murinum, 504 h; 80 g/ha, pre-emergence
Outline: as §1

[7] = system: LOLRI; test: Pre-emergence herbicidal action against LOLRI; type: in vivo, Lolium rigidum; conditions: Lolium rigidum, 504 h
Outline: as §1

[8] = system: MATIN; test: Pre-emergence herbicidal action against MATIN; type: in vivo, Matricaria inodora; conditions: Tripleurospermum inodorum, 504 h; for pest or weed control at 20 g/ha: dosage 20 g/ha; for pest or weed control at 80 g/ha: dosage 80 g/ha
Outline: as §1

[9] = system: PHBPU; test: Pre-emergence herbicidal action against PHBPU; type: in vivo, Pharbitis purpurea; conditions: Ipomoea purpurea, 504 h, dosage 80 g/ha
Outline: as §1

[10] = system: POLCO; test: Pre-emergence herbicidal action against POLCO; type: in vivo, Polygonum convolvulus; conditions: Fallopia convolvulus, 504 h, dosage 80 g/ha
Outline: as §1

[11] = system: SETVI; test: Pre-emergence herbicidal action against SETVI; type: in vivo, Setaria viridis; conditions: Setaria viridis, 504 h; for pest or weed control at 20 g/ha: dosage 20 g/ha; for pest or weed control at 80 g/ha: dosage 80 g/ha
Outline: as §1

[12] = system: STEME; test: Pre-emergence herbicidal action against STEME; type: in vivo, Stellaria media; conditions: Stellaria media, 504 h
Outline: as §1

[13] = system: VIOTR; test: Pre-emergence herbicidal action against VIOTR; type: in vivo, Viola tricolor; conditions: Viola tricolor, 504 h; for pest or weed control at 20 g/ha: dosage 20 g/ha; for pest or weed control at 80 g/ha: dosage 80 g/ha
Outline: as §1

[14] = system: DIGSA; test: Pre-emergence herbicidal action against DIGSA; type: in vivo, Digitaria sanguinalis; conditions: Digitaria sanguinalis, 504 h; for pest or weed control at 20 g/ha: dosage 20 g/ha; for pest or weed control at 80 g/ha: dosage 80 g/ha
Outline: as §1

[15] = system: ABUTH; test: Post-emergence herbicidal action against ABUTH; type: in vivo, Abutilon theophrasti; conditions: Abutilon theophrasti, 504 h, visual assessment about 3 weeks after treatment vs untreated controls; for pest or weed control at 20 g/ha: dosage 20 g/ha
Outline: (§2)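 Visual % rating (0% = as untreated, 100% = dead) ~3 wk after spraying one-leaf-stage plants grown in sandy loam; WP/EC in water at 600–800 l/ha, 0.2% wetting agent.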

[16] = system: ALOMY; test: Post-emergence herbicidal action against ALOMY; type: in vivo, Alopecurus myosuroides; conditions: Alopecurus myosuroides, 504 h, visual assessment about 3 weeks after treatment vs untreated controls; for pest or weed control at 20 g/ha: dosage 20 g/ha; for pest or weed control at 5 g/ha: dosage 5 g/ha
Outline: as §2

[17] = system: AMARE; test: Post-emergence herbicidal action against AMARE; type: in vivo, Amaranthus retroflexus; conditions: Amaranthus retroflexus, 504 h, 20 g/ha, visual assessment about 3 weeks after treatment, 100% = plants have died, 0% = like control plants
Outline: as §2

[18] = system: AVEFA; test: Post-emergence herbicidal action against AVEFA; type: in vivo, Avena fatua; conditions: Avena fatua, 504 h, visual assessment about 3 weeks after treatment, 100% = plants have died, 0% = like control plants
Outline: as §2

[19] = system: ECHCG; test: Post-emergence herbicidal action against ECHCG; type: in vivo, Echinochloa crus-galli; conditions: Echinochloa crus-galli, 504 h, dosage 20 g/ha
Outline: as §2

[20] = system: HORMU; test: Post-emergence herbicidal action against HORMU; type: in vivo, Hordeum murinum; conditions: Hordeum murinum, 504 h, dosage 20 g/ha
Outline: as §2

[21] = system: LOLRI; test: Post-emergence herbicidal action against LOLRI; type: in vivo, Lolium rigidum; conditions: Lolium rigidum, 504 h, dosage 20 g/ha
Outline: as §2

[22] = system: SETVI; test: Post-emergence herbicidal action against SETVI; type: in vivo, Setaria viridis; conditions: Setaria viridis, 504 h; for pest or weed control at 5 g/ha: dosage 5 g/ha; for pest or weed control at 20 g/ha: dosage 20 g/ha
Outline: as §2

[23] = system: STEME; test: Post-emergence herbicidal action against STEME; type: in vivo, Stellaria media; conditions: Stellaria media, 504 h
Outline: as §2

[24] = system: VIOTR; test: Post-emergence herbicidal action against VIOTR; type: in vivo, Viola tricolor; conditions: Viola tricolor, 504 h
Outline: as §2

[25] = system: DIGSA; test: Post-emergence herbicidal action against DIGSA; type: in vivo, Digitaria sanguinalis; conditions: Digitaria sanguinalis, 504 h
Outline: as §2

[26] = system: VERPE; test: Pre-emergence herbicidal action against VERPE; type: in vivo, Veronica persica; conditions: Veronica persica, 504 h
Outline: as §1

[27] = system: MATIN; test: Post-emergence herbicidal action against MATIN; type: in vivo, Matricaria inodora; conditions: Tripleurospermum inodorum, 504 h, dosage 20 g/ha
Outline: as §2

[28] = system: PHBPU; test: Post-emergence herbicidal action against PHBPU; type: in vivo, Pharbitis purpurea; conditions: Ipomoea purpurea, 504 h, dosage 20 g/ha
Outline: as §2

[29] = system: POLCO; test: Post-emergence herbicidal action against POLCO; type: in vivo, Polygonum convolvulus; conditions: Fallopia convolvulus, 504 h, dosage 20 g/ha
Outline: as §2

[30] = system: VERPE; test: Post-emergence herbicidal action against VERPE; type: in vivo, Veronica persica; conditions: Veronica persica, 504 h, 20 g/ha
Outline: as §2

SMILES	pest or weed control at 80 g/ha [1] [%]	pest or weed control at 20 g/ha [1] [%]	pest or weed control at 80 g/ha [2] [%]	pest or weed control at 20 g/ha [2] [%]	pest or weed control at 20 g/ha [3] [%]	pest or weed control at 80 g/ha [3] [%]	pest or weed control at 80 g/ha [4] [%]	pest or weed control at 80 g/ha [5] [%]	pest or weed control at 80 g/ha [7] [%]	pest or weed control at 20 g/ha [8] [%]	pest or weed control at 80 g/ha [8] [%]	pest or weed control at 80 g/ha [11] [%]	pest or weed control at 80 g/ha [13] [%]	pest or weed control at 20 g/ha [14] [%]	pest or weed control at 80 g/ha [14] [%]	pest or weed control at 20 g/ha [15] [%]	pest or weed control at 20 g/ha [16] [%]	pest or weed control at 20 g/ha [17] [%]	pest or weed control at 20 g/ha [18] [%]	pest or weed control at 20 g/ha [19] [%]	also measured
Cn1nnnc1NC(=O)c1ccc(Cl)c(C(=O)NC2CC2)c1Cl [Example 1-173]	100	90	100	80	100	100	100	100	90	80	100	100	90	100	100	90	80	100	100	80	pest or weed control at 80 g/ha [6]: 90%; pest or weed control at 20 g/ha ([7]; 20 g/ha): 80%; pest or weed control at 80 g/ha [9]: 90%; pest or weed control at 80 g/ha [10]: 80%; pest or weed control at 20 g/ha [11]: 90%; pest or weed control at 20 g/ha ([12]; dosage 20 g/ha): 80%; pest or weed control at 80 g/ha ([12]; dosage 80 g/ha): 100%; pest or weed control at 20 g/ha [13]: 80%; pest or weed control at 5 g/ha ([18]; 5 g/ha): 90%; pest or weed control at 20 g/ha [20]: 90%; pest or weed control at 20 g/ha [21]: 90%; pest or weed control at 5 g/ha [22]: 90%; pest or weed control at 20 g/ha [22]: 90%; pest or weed control at 20 g/ha ([23]; 20 g/ha): 100%; pest or weed control at 5 g/ha ([23]; dosage 5 g/ha): 80%; pest or weed control at 5 g/ha [24]: 90%; pest or weed control at 20 g/ha [24]: 90%; pest or weed control at 5 g/ha [25]: 90%; pest or weed control at 20 g/ha [25]: 100%
CCNC(=O)c1c(Br)ccc(C(=O)Nc2nnnn2C)c1Cl [Example 1-178, 4-bromo-2-chloro-N^3-ethyl-N^1-(1-methyl-1H-tetrazol-5-yl)isophthalamide]	100	90	100	80	100	100	100	100	80	90	100	100	100	100	100	80	100	100	80	90	pest or weed control at 20 g/ha ([5]; 20 g/ha): 80%; pest or weed control at 80 g/ha [9]: 80%; pest or weed control at 20 g/ha ([26]; dosage 20 g/ha): 80%; pest or weed control at 80 g/ha ([26]; dosage 80 g/ha): 80%; pest or weed control at 5 g/ha ([15]; dosage 5 g/ha): 80%; pest or weed control at 5 g/ha [16]: 90%; pest or weed control at 20 g/ha [21]: 80%; pest or weed control at 20 g/ha [27]: 90%; pest or weed control at 20 g/ha [28]: 80%; pest or weed control at 20 g/ha [29]: 80%; pest or weed control at 20 g/ha [22]: 90%; pest or weed control at 20 g/ha [30]: 80%; pest or weed control at 5 g/ha [24]: 80%; pest or weed control at 20 g/ha [24]: 80%
Cn1nnnc1NC(=O)c1ccc(Br)c(C(=O)NC2CC2)c1Cl [Example 1-179]	100	80	100	80	100	100	100	100	90	90	100	100	100	100	100	80	90	100	90	90	pest or weed control at 20 g/ha [11]: 80%; pest or weed control at 20 g/ha [13]: 100%; pest or weed control at 5 g/ha [16]: 90%; pest or weed control at 20 g/ha [21]: 80%; pest or weed control at 20 g/ha [27]: 80%; pest or weed control at 20 g/ha [29]: 80%; pest or weed control at 5 g/ha [22]: 90%; pest or weed control at 20 g/ha [22]: 90%; pest or weed control at 20 g/ha [30]: 80%; pest or weed control at 5 g/ha [24]: 80%; pest or weed control at 20 g/ha [24]: 90%; pest or weed control at 5 g/ha [25]: 90%; pest or weed control at 20 g/ha [25]: 90%
